Legend:
[1] = tested on: CD4^+CXCR4^+ target cells; type: cell-based, human
Method: Supplementary FIG. 1 Pannexin-1-dependent ATP release during HIV-1 infection and during HIV-1 Env-mediated fusion. (a) Effect of apyrase and AMD3100 on target cell viability. The viability of cells incubated for 3 hours with different concentrations of apyrase or AMD3100 (as indicated) and then infected with HIV-1NL43 for 2 days, was assessed by the MTT (3-[4,5-dimethylthiazol-2-yl]-2,5-diphenyl tetrazolium bromide) assay, as detailed in Methods. (b) Effects of apyrase and AMD3100 on ATP release detected during HIV-1 infection. […] After 2 hours of infection, ATP release was determined as described in Methods. […] Cell viability in c was assessed as in a (mean±s.e.m; n=3; *P<0.05). Fusion between HIV-1 Env-expressing cells (that also express Tat protein) and CD4^+CXCR4^+ target cells (that contain Tat-inducible β-galactosidase) was determined by measuring β-galactosidase (β-Gal) activity (d), as described in Methods. (e) Effects of Pannexin-1 knockdowns on HIV-1 Env-mediated fusion, as described in (c). Data in (a), (b), (c), (d) and (e) were determined in 3 independent experiments (mean±s.e.m; *P<0.05).

[2] = tested on: PHA/IL-2 stimulated human lymphoblasts infected with HIVNDK; test: Plasma membrane depolarization after HIVNDK infection (DiBac4(3), flow cytometry); type: cell-based; conditions: 1 hour of HIVNDK infection (Fig. 4e)
HIVNL43 = test: Target cell infectivity, Tat-inducible β-galactosidase reporter; type: cell-based, HIV-1; conditions: HIVNL43, MOI 1, β-Gal reporter, 24 h after infection
[3] = tested on: CD4/CXCR4-expressing cells cocultured with Env-expressing cells; test: HIV-1 envelope mediated conjugate formation (actin polymerization between two interacting cells); conditions: coculture of Env-expressing and CD4/CXCR4-expressing cells (Fig. 1d)
Method: Error bars indicate SD of 3 independent determinations (means±SD; *P<0.05). (d) Effect of ATP depletion by apyrase on HIV-1 envelope mediated actin polymerization. Actin polymerization between two interacting cells was determined in 3 independent experiments (means±SEM; *P<0.05) by fluorescent microscopy (e) Localization of pannexin-1 at the contact site between primary HIV-1-infected lymphoblasts (green) and primary uninfected lymphoblasts, visualized by confocal microscopy.
HeLa cells stably transfected with the Env gene of HIV-1 LAI/IIIB (HeLa Env) and HeLa cells transfected with CD4 (HeLa CD4) were cultured alone or together at a 1:1 ratio in Dulbecco's modified Eagle's medium supplemented with 10% FCS, 2 mM L-glutamine and penicillin/streptomycin (Invitrogen) in the absence or in presence of tested molecules.

[4] = tested on: HIV-1 envelope mediated hemifusion/fusion of HeLa Env^+ and HeLa CD4^+ cells; test: Hemifusion and cell-cell fusion assays, HeLa Env+ / HeLa CD4+ coculture; type: cell-based, human; conditions: absence or presence of 70 mM KCl for 3 h; 5 μM AMD3100 (Fig. 4d)
[5] = tested on: CD4^+CXCR4^+ cells infected with HIVNL43
CD4^+CXCR4^+ cells = test: Plasma membrane depolarization of uninfected cells (DiBac4(3), flow cytometry); type: cell-based, human; conditions: 70 mM KCl for 3 h (Fig. 4b,c)
HIVNDK = type: cell-based, HIV-1; conditions: activated T-lymphoblasts (Fig. 2a, S2a)
HIVBaL = type: cell-based, HIV-1; conditions: activated T-lymphoblasts (Fig. 2a, S2a)
[6] = tested on: HIVNDK infected (PHA/IL-2 stimulated) lymphoblasts; type: cell-based, human; conditions: HIVNDK (Fig. 6d)

apyrase was tested, and the “toxicity / target cell viability” value [1] was “non-toxic”, the “plasma membrane depolarization induced by HIV-1 infection” value [2] was “abolished” and the “HIV-1 infection (target cell infectivity)” value (HIVNL43) was “prevented HIV-1 infection”. For the same molecule, the “conjugate formation revealed by actin polymerization between two interacting cells” value [3] was “abolished conjugate formation”.
For `c1cc(CN2CCCNCCNCCCNCC2)ccc1CN1CCCNCCNCCCNCC1` [AMD3100], the “fusion of Env+ and CD4+/CXCR4+ cells” value [4] was “reduced”, the “plasma membrane depolarization induced by HIV-1 infection” value [2] was “abolished” and the “ATP release during HIV-1 infection” value [5] was “prevented ATP release”.
In the case of `[Cl-].[K+]` [KCl], the “fusion of Env+ and CD4+/CXCR4+ cells” value [4] is reported as “enhanced the fusion” and the plasma membrane depolarization (CD4^+CXCR4^+ cells) is reported as “strongly induced membrane depolarization”.
`Nc1ncnc2c1ncn2[C@@H](C=O)O[C@@H](C=O)COP(=O)(O)OP(=O)(O)OP(=O)(O)O` [OxATP, oxidized ATP] was tested, and the “replication of X4-tropic HIV” value (HIVNDK) was “blocked the replication” and the “replication of R5-tropic HIV” value (HIVBaL) was “blocked the replication”.
With `Cc1nc(N=Nc2ccc(S(=O)(=O)O)cc2S(=O)(=O)O)c(COP(=O)(O)O)c(C=O)c1O` [PPADS] the “CD4+ T cell depletion / death of activated CD4+ T lymphoblasts (7-AAD uptake)” value [6] was “reduces”, the “viral infection of lymphoblasts (intracellular p24 antigen)” value [6] was “reduces viral infection” and the “replication of X4-tropic HIV” value (HIVNDK) was “blocked the replication”. The “replication of R5-tropic HIV” value (HIVBaL) was “blocked the replication”.
`Cc1ccc(C(=O)Nc2ccc(S(=O)(=O)O)c3cc(S(=O)(=O)O)cc(S(=O)(=O)O)c23)cc1NC(=O)c1cccc(NC(=O)Nc2cccc(C(=O)Nc3cc(C(=O)Nc4ccc(S(=O)(=O)O)c5cc(S(=O)(=O)O)cc(S(=O)(=O)O)c45)ccc3C)c2)c1` [suramin] was tested, and the “CD4+ T cell depletion / death of activated CD4+ T lymphoblasts (7-AAD uptake)” value [6] was “reduces”, the “viral infection of lymphoblasts (intracellular p24 antigen)” value [6] was “reduces viral infection” and the “replication of X4-tropic HIV” value (HIVNDK) was “blocked the replication”. The “replication of R5-tropic HIV” value (HIVBaL) was “blocked the replication”.

From US20130156791A1, “METHODS AND PHARMACEUTICAL COMPOSITIONS FOR THE TREATMENT OF HIV-1 INFECTIONS” (priority 2010, published 2013)
